According to publication PMC3402541, “Guanidylation and Tail Effects in Cationic Antimicrobial Lipopeptoids” (PLoS ONE, 2012):
Values after ≈ are worked out from the molar mass of the structure shown.

How the values were obtained:
S.aureus ATCC 29213 = assay type: cell-based, Staphylococcus aureus; conditions: ATCC 29213, 24 h
Description: (§1) Antimicrobial activity of the purified lipopeptoids was determined without replication against a panel of clinically relevant and standard reference bacterial strains according to CLSI macrobroth standards. Stock solutions at 512 µg/mL were prepared in water, with DMSO as needed, and testing was performed in glass test tubes using Muller-Hinton broth and bacteria adjusted to 5 × 10^5 CFU/mL. Bacteria were incubated with the lipopeptoid of interest for 24 hr at 37°C prior to reading.
(§2) The bacteria Staphylococcus aureus ATCC 29213, methicillin-resistant S. aureus ATCC 33592, Staphylococcus epidermidis ATCC 14990, Enterococcus faecalis ATCC 29212, E. faecium ATCC 27270, Streptococcus pneumoniae ATCC 49619, Escherichia coli ATCC 25922, Pseudomonas aeruginosa ATCC 27853, and Klebsiella pneumoniae ATCC 13883 were acquired from the American Type Culture Collection (ATCC) and used as quality controls. The clinical strains methicillin-resistant S. epidermidis (MRSE) CAN-ICU 61589, E. coli CAN-ICU 61714, E. coli CAN-ICU 63074, P. aeruginosa CAN-ICU 62308, Stenotrophomonas maltophilia CAN-ICU 62584, Acinetobacter baumannii CAN-ICU 63169 were obtained from hospitals across Canada as part of the CAN-ICU studies, while methicillin-susceptible S. epidermidis (MSSE) 81388 was obtained from the 2008 CANWARD study.
(§3) After subculturing the relevant bacteria twice from frozen stock, in vitro activities of the antimicrobials were determined by macrobroth dilution methodology in accordance with the Clinical and Laboratory Standards Institute (CLSI) guidelines (3). The MICs were determined using glass test tubes (2 mL/tube) containing doubling antimicrobial dilutions of cation adjusted Mueller-Hinton broth inoculated to achieve a final concentration of approximately 5 x 10^5 CFU/mL, incubated in ambient air for 24 hr prior to reading. Colony counts were performed periodically to confirm inocula. The ATCC organisms […] ATCC 49619, Staphylococcus aureus ATCC 29213, Enterococcus faecalis ATCC 29212, Escherichia coli ATCC 25922, and Pseudomonas aeruginosa ATCC 27853 were used as quality control and to allow easy comparison to previously tested antimicrobials. Each test in this series was performed without replication. In our experience with cationic amphiphiles the results are accurate to within a single doubling.

MRSA ATCC 33592 = assay type: cell-based, methicillin-resistant S. aureus; conditions: ATCC 33592, 24 h
Description: as §1, §2, §3

MSSE 81388 CANWARD 2008 = assay type: cell-based, methicillin-susceptible S. epidermidis; conditions: 24 h
Description: as §1, §2, §3

MRSE CAN-ICU 61589 = assay type: cell-based, methicillin-resistant S. epidermidis; conditions: CAN-ICU 61589, 24 h
Description: as §1, §2, §3

E. faecalis ATCC 29212 = assay type: cell-based, Enterococcus faecalis; conditions: ATCC 29212, 24 h
Description: as §1, §2, §3

S.pneumoniae ATCC 49619 = assay type: cell-based, Streptococcus pneumoniae; conditions: ATCC 49619, 24 h
Description: as §1, §2, §3

P.aeruginosa ATCC 27853 = assay type: cell-based, Pseudomonas aeruginosa; conditions: ATCC 27853, 24 h
Description: as §1, §2, §3

[1] = tested on: P.aeruginosa CAN-ICU 62308; assay type: cell-based, Pseudomonas aeruginosa; conditions: CAN-ICU 62308, 24 h
Description: as §1, §2, §3

[2] = tested on: S. maltophilia CAN-ICU 62584; assay type: cell-based, Stenotrophomonas maltophilia; conditions: CAN-ICU 62584, 24 h
Description: as §1, §2, §3

[3] = tested on: A. baumannii CAN-ICU 63169; assay type: cell-based, Acinetobacter baumannii; conditions: CAN-ICU 63169, 24 h
Description: as §1, §2, §3

K.pneumoniae ATCC 13883 = assay type: cell-based, Klebsiella pneumoniae; conditions: ATCC 13883, 24 h
Description: as §1, §2, §3

ovine erythrocytes = assay: Haemolytic assay; assay type: cell-based, sheep; conditions: ovine erythrocytes in Tris buffered saline, 30 minutes, absorbance of supernatant at 540 nm
Description: Mammalian cell toxicity was determined by measuring lysis of ovine erythrocytes, a standard model for human cell toxicity. Cells were prewashed with Tris buffered saline and then incubated with a variety of lipopeptoid concentrations for 30 minutes. Following centrifugation, lysis was evaluated by testing the absorbance of the solution at 540 nm, with 0.5% NH4OH used as a positive control.
Toxicity to mammalian cells was determined using a sheep red blood cell (erythrocyte) haemolytic assay (4). Erythrocytes were washed and resuspended in Tris buffered saline prior to use, at a concentration of 1.46 - 4.5 x 10^9 cells/mL (on average 3.08 x 10^9 cells/mL). The cell suspension was diluted with varying concentrations of antimicrobials, from 50 μg/mL to 1 mg/mL and incubated for thirty minutes (final erythrocyte concentration 4.08 x 10^8 cells/mL). The samples were centrifuged following treatment and the absorbance of the supernatant was measured at 540 nm. A solution of 0.5% […] was used as a positive control, with normal buffered solution as the negative control. The toxicity was assessed as a function of percent haemolysis.

E.coli ATCC 25922 = assay type: cell-based, Escherichia coli; conditions: ATCC 25922, 24 h
Description: as §1, §2, §3

E.coli CAN-ICU 61714 = assay type: cell-based, Escherichia coli; conditions: CAN-ICU 61714, 24 h
Description: as §1, §2, §3

E.coli CAN-ICU 63074 = assay type: cell-based, Escherichia coli; conditions: CAN-ICU 63074, 24 h
Description: as §1, §2, §3

E. faecium ATCC 27270 = assay type: cell-based; conditions: ATCC 27270, 24 h
Description: as §1, §2, §3

Row | MIC S.aureus (S.aureus ATCC 29213) [µg/mL] | MIC S.aureus in the presence of 4% bovine serum albumin (S.aureus ATCC 29213) [µg/mL] | MIC MRSA (MRSA ATCC 33592) [µg/mL] | MIC MRSA in the presence of 4% bovine serum albumin (MRSA ATCC 33592) [µg/mL] | MIC MSSE (MSSE 81388 CANWARD 2008) [µg/mL] | MIC MSSE in the presence of 4% bovine serum albumin (MSSE 81388 CANWARD 2008) [µg/mL] | MIC MRSE (MRSE CAN-ICU 61589) [µg/mL] | MIC MRSE in the presence of 4% bovine serum albumin (MRSE CAN-ICU 61589) [µg/mL] | MIC E. faecalis (E. faecalis ATCC 29212) [µg/mL] | MIC E. faecalis in the presence of 4% bovine serum albumin (E. faecalis ATCC 29212) [µg/mL] | MIC S.pneumoniae (S.pneumoniae ATCC 49619) [µg/mL] | MIC S.pneumoniae in the presence of 4% bovine serum albumin (S.pneumoniae ATCC 49619) [µg/mL] | MIC P.aeruginosa (P.aeruginosa ATCC 27853) [µg/mL] | MIC P.aeruginosa in the presence of 4% bovine serum albumin (P.aeruginosa ATCC 27853) [µg/mL] | MIC P.aeruginosa [1] [µg/mL] | MIC P.aeruginosa in the presence of 4% bovine serum albumin [1] [µg/mL] | MIC S. maltophilia [2] [µg/mL] | MIC S. maltophilia in the presence of 4% bovine serum albumin [2] [µg/mL] | MIC A. baumannii [3] [µg/mL] | MIC A. baumannii in the presence of 4% bovine serum albumin [3] [µg/mL] | SMILES | other results
1 | 16 (≈ 25.6 µM) | 512 | 16 (≈ 25.6 µM) | 512 | 8 (≈ 12.8 µM) | 512 | 16 (≈ 25.6 µM) | 512 | 32 (≈ 51.2 µM) | 512 | 128 (≈ 205 µM) | 512 | 64 (≈ 102 µM) | >512 | 128 (≈ 205 µM) | >512 | 256 (≈ 410 µM) | >512 | 512 (≈ 819 µM) | >512 | CCCCCCCCCCCCCC(=O)N(CCCCNC(=N)N)CC(=O)NCC(=O)N(CCCCNC(=N)N)CC(N)=O [C14-NhargGNharg] | MIC K.pneumoniae (K.pneumoniae ATCC 13883): 256 µg/mL (≈ 410 µM); MIC K.pneumoniae in the presence of 4% bovine serum albumin (K.pneumoniae ATCC 13883): >512 µg/mL; Percent haemolysis at 100µg/mL of compound (ovine erythrocytes): 55.44%; MIC E.coli (E.coli ATCC 25922): 32 µg/mL (≈ 51.2 µM); MIC E.coli in the presence of 4% bovine serum albumin (E.coli ATCC 25922): 512 µg/mL; MIC E.coli (E.coli CAN-ICU 61714): 64 µg/mL (≈ 102 µM); MIC E.coli in the presence of 4% bovine serum albumin (E.coli CAN-ICU 61714): >512 µg/mL; MIC E.coli (E.coli CAN-ICU 63074): 64 µg/mL (≈ 102 µM); MIC E.coli in the presence of 4% bovine serum albumin (E.coli CAN-ICU 63074): >512 µg/mL; MIC E. faecium (E. faecium ATCC 27270): 32 µg/mL (≈ 51.2 µM); MIC E. faecium in the presence of 4% bovine serum albumin (E. faecium ATCC 27270): 512 µg/mL
2 | 32 (≈ 52.3 µM) | 512 | 64 (≈ 105 µM) | 512 | 32 (≈ 52.3 µM) | 512 | 16 (≈ 26.1 µM) | 512 | 64 (≈ 105 µM) | 512 | 128 (≈ 209 µM) | >512 | 512 (≈ 837 µM) | >512 | 512 (≈ 837 µM) | 512 | >512 | >512 | 512 (≈ 837 µM) | >512 | CCCCCCCCCCCCCC(=O)N(CCCCN)CC(=O)N(CCCCN)CC(=O)N(CCCCN)CC(N)=O [C14-NlysNlysNlys] | MIC K.pneumoniae (K.pneumoniae ATCC 13883): 512 µg/mL (≈ 837 µM); MIC K.pneumoniae in the presence of 4% bovine serum albumin (K.pneumoniae ATCC 13883): >512 µg/mL; Percent haemolysis at 100µg/mL of compound (ovine erythrocytes): 2.19%; MIC E.coli (E.coli ATCC 25922): 128 µg/mL (≈ 209 µM); MIC E.coli in the presence of 4% bovine serum albumin (E.coli ATCC 25922): >512 µg/mL; MIC E.coli (E.coli CAN-ICU 61714): 128 µg/mL (≈ 209 µM); MIC E.coli in the presence of 4% bovine serum albumin (E.coli CAN-ICU 61714): >512 µg/mL; MIC E.coli (E.coli CAN-ICU 63074): 128 µg/mL (≈ 209 µM); MIC E.coli in the presence of 4% bovine serum albumin (E.coli CAN-ICU 63074): >512 µg/mL; MIC E. faecium (E. faecium ATCC 27270): 64 µg/mL (≈ 105 µM); MIC E. faecium in the presence of 4% bovine serum albumin (E. faecium ATCC 27270): 512 µg/mL
